Data: patent publication US20210052600A1, “THERAPEUTIC AGENTS FOR STRESS URINARY INCONTINENCE AND INCOTINENCE OF FECES” (Takeda Pharmaceutical Company Limited, priority 2017, published 2021)

Assays:
[1] = rat, in vivo, 2.5 mg/kg
Method: (§1) Ten female rats of SD strain were anesthetized with isoflurane. In order to secure the same conditions as those for drug-administered animals, their spinal cord was transected at the T8-T9 (the eighth thoracic cord—the ninth thoracic cord) level. Then, a cannula for blood collection was inserted into the femoral artery. […] These drugs were each dissolved in 0.5% MC. Thirty minutes after oral administration, up to 250 μL of blood was collected from the femoral artery or the tail vein and treated with heparin. The collected blood was immediately cooled on ice and centrifuged under conditions involving 3,000 rpm and 4° C. for 10 minutes to obtain plasma. The plasma samples were stored under conditions of −80° C. until drug quantification.
(§2) After thawing of the plasma samples, the internal standard compound was added thereto, and the mixture was then centrifuged under conditions of 5,250 rpm. The drug contained in 60 μL of the supernatant was quantified by LC-MS/MS.

[2] = Plasma concentrations in rats 30 minutes after oral administration (effective plasma concentration at LPP10); conditions: rat; measured concentration multiplied by ratio between dosage used and LPP10
Method: as §1, §2

[3] = Comparison of plasma concentrations for urethra-closing effect and anti-obesity effect (analysis of Examples 1-9 and literature); conditions: free form; extrapolated, 3.3-fold less than rat 670 ng/mL

CC(C)N(C)c1cnc2c(n1)OCCNC2.Cl [Compound A, N-methyl-N-(1-methylethyl)-6,7,8,9-tetrahydropyrazino[2,3-f][1,4]oxazeine-3-amine]
plasma concentration 30 minutes after oral administration [1]: 94.8 ± 24.1 ng/mL
plasma concentration at LPP10 [2]: 61 ng/mL
average plasma concentration in a day (steady state) giving a body weight lowering effect greater than placebo by 3.8% in humans [3]: 203 ng/mL
